≈ marks a conversion by molar mass, not a printed value. Read-outs that look alike come from different tables or passages of the source. Marks after values point to notes of the source that are not given here.
Columns and labels:
[1] = tested on: HIV-1(IIIB) strains containing L100I, K103N, Y181C and Y188H mutations in the RT; assay: HIV-1(IIIB) strains with NNRTI-specific RT mutations in CEM cell cultures; format: cell-based; details: data not shown
Method: (§1) In vitro antiviral assays. The activity against HIV-1- and HIV-2-induced cytopathicity was examined in MT-4 cell cultures at day 5 post infection and based on the determination of cell viability by trypan blue dye staining or in CEM cell cultures at day 4 to 5 post infection and based on the microscopical examination of virus-induced giant cell formation. HIV-1 and HIV-2 were added at 100 CCID50 to the cell cultures.

[2] = Toxicity in CrFK cells; format: cell-based, feline; details: cat, CrFK cells; Table 2
[3] = tested on: MSV; format: in vivo; details: for Number of Mice not Developing a Tumor (percent): intraperitoneal, 5 daily doses, newborn NMRI mice
[4] = tested on: HIV-2(ROD); assay: HIV-2(ROD)-induced cytopathicity in MT-4 cell cultures; format: cell-based; details: Human immunodeficiency virus 2, MT4, read-out: EC50 HIV-2 (ROD) (MT-4)
Source text: (§2) Viruses. The origins of MSV, HIV type 1 (HIV-1) (strain IIIB and Ba-L), HIV-2 (strain ROD) and FIV (strain Petaluma) have been described previously (Balzarini et al., AIDS 5: 21-28, 1991; De Clercq et al., Proc. Soc. Exp. Biol. Med. 137:590-594, 1971; Egberink et al., Proc. Natl. Acad. Sci. 87:3087-3091, 1990; Hartmann et al., Antiviral Chem. Chemother. 5:13-19, 1994; Popovic et al., Science 224:497-500, 1984). HIV-1(IIIB) and HIV-2(ROD) stocks were obtained from supernatants of virus-infected MT-4 cell cultures. HIV-1BaL was expanded in human primary M/M, whose supernatants were collected, filtered and stored at −80° C. before use. Characteristics of viral stocks used for this study were 2.1×10^8 HIV-RNA genomes/ml (corresponding to 35 ng of p24 antigen) and 5,000 tissue culture infectious doses 50% per ml (TCID50/ml) as assessed by virus titration in other primary M/M cultures. The isolation and characterization of the clinical HIV-1 isolates L1S, L6S and L6S/PMEA has been reported (Thormar et al., Proc. Natl. Acad. Sci. USA 93:3283-3287, 1995; Van Laethem et al., AIDS 15:553-561, 2001). […] HIV-1/L6S/PMEA is the clinical isolate HIV-1/L6S that has been isolated after culturing the virus for 11 passages in the presence of increasing concentrations of PMEA (adefovir).
as §1

[5] = tested on: FIV (strain Petaluma); assay: Anti-FIV assay, p24 antigen in CrFK cells; format: cell-based; details: Feline immunodeficiency virus, CRFK; Table 2
Method: For the anti-FIV assays, 10^5 CrFK cells were seeded onto 24-well tissue culture plates. Cells were cultured with 2 ml of culture medium/well containing 2.5% of fetal calf serum in the presence of various drug concentrations. The assays were carried out in triplicate. After a 1-hr incubation period at 37° C., cells were infected with FIV. Virus was left in contact with the cultures for 1 day, after which the medium was removed and new medium containing the appropriate drug concentrations was added. After 6 days, the presence of FIV p24 antigen was examined by an antigen capture assay.

[6] = tested on: C3H cells; assay: Alteration of C3H cell morphology (minimal inhibitory concentration); format: cell-based, murine; details: Table 2, footnote c
[7] = as above; format: cell-based, murine; details: mouse, C3H/3T3 embryo fibroblast cells; microscopically visible alteration of cell morphology; > means no visible toxicity at the indicated concentration; read-out: CC50 C3H (minimal inhibitory concentration)
[8] = tested on: HIV-1(IIIB); assay: HIV-1(IIIB)-induced cytopathicity in MT-4 cell cultures; format: cell-based; details: Human immunodeficiency virus 1, IIIB, MT4; Table 2
Source text: as §2, §1

[9] = MT-4 cell toxicity (trypan blue exclusion); format: cell-based; details: human, MT-4 cells; reduction of cell viability; Table 2
Method: Cytostatic and antimetabolic effect of acyclic nucleoside phosphonates in vitro. The assays to examine the inhibition of CEM cell growth by the test compounds have been described previously (Balzarini et al., AIDS 5:21-28, 1991). The 50% cytostatic concentration (CC50) was defined as the concentration of compound that reduced the number of living cells by 50% . To measure MT-4 cell toxicity of the test compounds, 5×10^4 MT-4 cells were incubated in the wells of 96-well microplates in the presence or absence of different concentrations of the test compounds for 5 days at 37° C. The CC50 was then calculated from the number of living cells counted under a microscope by the trypan blue exclusion method.

[10] = Inhibition of CEM cell growth (cytostatic activity); format: cell-based; details: human, CEM cells
Summary of the method: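 MT-4 cells (5×10^4/well) exposed to compound dilutions for 5 days at 37 °C; CC50 = concentration cutting living cells by 50%, counted microscopically with trypan blue exclusion. CEM cytostatic CC50 defined likewise, by a previously described method.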

[11] = tested on: MSV; assay: MSV-induced transformation of murine embryo fibroblast C3H/3T3 cell cultures; format: cell-based; details: Mus musculus
Method: The inhibitory effect of the test compounds on MSV-induced transformation of murine embryo fibroblast C3H/3T3 cell cultures was examined microscopically at day 6 post infection. MSV was added at 75 focus-forming units to the cell cultures. The detailed procedures for the antiretroviral evaluations has been described in detail before (Balzarini et al., AIDS 5:21-28, 1991; Balzarini et al., Antimicrob. Agents Chemother. 37:332-338, 1993; De Clercq et al., Proc. Soc. Exp. Biol. Med. 137:590-594, 1971).

[12] = tested on: HIV-1(IIIB); assay: HIV-1(IIIB) p24 antigen production in PBL (PHA-stimulated PBMC); format: cell-based; details: Human immunodeficiency virus 1, IIIB, PBMC
Method: Peripheral blood mononuclear cells (PBMC) from healthy donors were isolated by density centrifugation (Lymphoprep; Nycomed Pharma, AS Diagnostics, Oslo, Norway) and stimulated with phytohemagglutin (PHA) (Sigma Chemical Co., Bornem, Belgium) for 3 days. The activated cells (PHA-stimulated blasts) were washed with PBS and viral infections were done as described by the AIDS clinical trial group protocols. Briefly, PBMCs (2×10^5/200 well) were plated in the presence of serial dilutions of the test compound and were infected with HIV stocks at 1000 CCID50 per mL. At day 4 post-infection, 125 μl of the supernatant of the infected cultures was removed and replaced with 150 μl of fresh medium containing the test compounds at the appropriate concentrations. At 7 days after plating the cells, p24 antigen was detected in the culture supernatant by an enzyme-linked immunosorbent assay (NEN, Paris, France).

[13] = tested on: HIV-2(ROD); assay: HIV-2(ROD)-induced cytopathicity in CEM cell cultures; format: cell-based; details: Human immunodeficiency virus 2, CCRF-CEM, read-out: EC50 HIV-2 (ROD) (CEM)
Source text: as §2, §1

[14] = 20 mg/kg, premature death not taken into account
[15] = 50 mg/kg, premature death not taken into account
[16] = 50% cytostatic concentration, CEM cell proliferation, Table 1, read-out: CC50 (CEM)
[17] = inhibition of cell proliferation, Table 2, read-out: CC50 CEM
[18] = MSV-induced C3H cell transformation, Table 2, read-out: EC50 MSV (C3H)

Row | SMILES | Activity against NNRTI-specific mutant virus strains, in words [1] | CC50 [2] [µg/mL] | Number of Long-Term Survivors (%) (>30 days) ([3]; 2 mg/kg) | Number of Mice not Developing a Tumor (percent) ([3]; 2 mg/kg) [%] | Number of Long-Term Survivors (%) (>30 days) ([3]; 8 mg/kg) | Number of Mice not Developing a Tumor (percent) ([3]; 8 mg/kg) [%] | Number of Mice not Developing a Tumor (percent) ([3]; 20 mg/kg) [%] | Number of Long-Term Survivors (%) (>30 days) [3, 14] | Number of Mice not Developing a Tumor (percent) ([3]; 50 mg/kg) [%] | Number of Long-Term Survivors (%) (>30 days) [3, 15] | EC50 [4] [µg/mL] | EC50 [5] [µg/mL] | Compound concentration at which morphological toxicity was observed, C3H (value between parentheses) [6] [μg/ml] | Minimal concentration causing visible cell morphology alteration [7] [µg/mL] | EC50 [8] [µg/mL] | CC50 at 5 days [9] [µg/mL] | CC50 [10, 16] [µg/mL] | CC50 [10, 17] [µg/mL] | CC50 ([10]; read-out: CC50 for CEM cells) [µg/mL] | EC50 [11, 18] [µg/mL] | further results
1 | Nc1cc(OCCOCP(=O)(O)O)nc(N)n1 [Compound 1, 2,4-diamino-6-[2-(phosphonomethoxy)ethoxy]pyrimidine] | retained full activity | 11 (≈ 41.6 µM) | 15 | 5 | 89 | 44 | 80 | 100 | 84 | 100^b % | 0.29 (≈ 1.1 µM) | 0.25 ± 0.01 (≈ 0.946 µM) | 200 | > 40 | 0.34 ± 0.03 (≈ 1.29 µM) | 46 ± 7.4 (≈ 174 µM) | 11 (≈ 41.6 µM) | 11 ± 2 (≈ 41.6 µM) | 11 (≈ 41.6 µM) | 0.16 ± 0.04 (≈ 0.606 µM) | Mice protected from tumor formation ([3]; 50 and 20 mg/kg): At least 80%; EC50 ([11]; C3H, read-out: EC50 against MSV-induced C3H cell transformation): 0.05 to 0.15 µg/mL (≈ 0.189 to 0.568 µM); EC50 ([12]; p24 antigen production, Table 2, read-out: EC50 HIV-1 (IIIB) (PBL)): 0.07 ± 0.02 µg/mL (≈ 0.265 µM); EC50 ([12]; read-out: EC50 HIV-1(IIIB) in PBL): 0.07 µg/mL (≈ 0.265 µM); EC50 [13]: 0.66 ± 0.19 µg/mL (≈ 2.5 µM)
2 | Nc1cc(SCCOCP(=O)(O)O)nc(N)n1 [Compound 2, 2,4-diamino-6-{[2-(phosphonomethoxy)ethyl]-sulfanyl}pyrimidine] | retained full activity | 42 (≈ 150 µM) | 0 | 0 | 20 | 0 | 0 | 20 | 0 | 20% | 2.9 (≈ 10.3 µM) | 0.97 ± 0.4 (≈ 3.46 µM) | 200 | > 40 | 2.5 ± 0.3 (≈ 8.92 µM) | ≥ 100 | 64 (≈ 228 µM) | 64 ± 9.8 (≈ 228 µM) | ~60 (≈ 214 µM) | 1.7 ± 0.9 (≈ 6.07 µM) | Prevention of tumor formation, in words ([3]; all doses tested): unable to prevent tumor formation; Long-term survivors ([3]; dose of 8-50 mg/kg): 20%; Delay of MSV-induced tumor formation, in words ([3]; mouse, in vivo): only showed a pronounced delay in tumor formation at a dose of 50 mg/kg; EC50 [13]: 3 ± 1.4 µg/mL (≈ 10.7 µM)
